Here are results for 1 compound from patent publication US8987309B2, “Compounds, pharmaceutical compositions and methods of use of 2-aryl pyridylazoles” (The Translational Genomics Research Institute, priority 2009, dated 2015).

pIC50: −log10 of the molar value. Entries after “also recorded” stand apart in the source; their conditions may differ.

One series relates to BxPC3 DPC-4(−/−) cells. Briefly: Measurement of cell cycle (PI flow cytometry). The conditions noted are these: 24 to 72 h. The format is cell-based, Human. The method, then:
Measurement of Cell Cycle. The percentage of cells in different cell cycle phases of division was measured by flow cytometry (Darzynkiewicz et al., 1996) using propidium iodide (PI) (Sigma-Aldrich). In brief, cells were treated with PC-046 for 24 to 72 h, fixed with 70% ethanol overnight, and then stained with 40 µg/ml PI and 0.5 mg/ml RNase A for 30 min at 37° C. PI fluorescence was measured on a FACScan (BD Biosciences, San Jose, Calif.) and analyzed using Mod-Fit (Verify Software, Topsham, Me.). Data are mean S.E.M. (n 3).
(§1) Mean±S.E.M., n=3. […] Mean±S.E.M., n=3. […] Mean tumor burden is shown.

The test system of a further series is MCF7. Briefly: IC50 in tumor cell lines (MCF7). In kind it is cell-based. The conditions noted are these: Table 2; breast tumor cell line MCF7. As to the method: (§2) Cytotoxicity Assays. Cytotoxicity assays in the mechanism of action studies were performed according to Mosmann (1983), wherein the activity of mitochondrial reductases were measured using 3-(4,5-dimethylthiozol-3-yl)-2,5-diphenyltetrozolium bromide dye. In brief, cells were seeded in 96-well plates and incubated for various times at 37° C. Inhibition of cell growth was measured by adding 3-(4,5-dimethylthiozol-3-yl)-2,5-diphenyltetrozolium bromide dye, and after an additional 4 h of incubation at 37° C., the 96-well plates were centrifuged, and the culture supernatant was removed. DMSO was added to each well to solubilize the formazan crystals, and the optical density was read at 540 nm on a Quant Spectrophotometer (BioTek Instruments, Winooski, Vt.). Cell growth inhibition data are expressed as percentage of survival compared with untreated cells. The IC50 is defined as the drug concentration required to produce 50% growth inhibition. Results are mean S.E.M. (n 3).

A short description of series [1]: Plasma protein binding (rapid equilibrium dialysis), mouse plasma. In kind it is in vitro ADME. Particulars: plasma concentration of 3.27 μM. The method, then:
Plasma Protein Binding. Plasma protein binding of DPC-046 was determined in human and mouse plasma using rapid equilibrium dialysis (RED) devices manufactured by Thermo Fisher Scientific. Plasma pH was adjusted to 7.4 and spiked with DPC-046 to a final plasma concentration of 1 μg/ml. Aliquots (500 μl) of the spiked plasma were placed into the sample chamber, and 750 μl of phosphate-buffered saline were placed into the adjacent chamber. Triplicate samples were loaded into the RED devices. The RED devices were incubated at 37° C. on an orbital shaker operating at 100 rpm for 24 h. […] After the incubation, aliquots of plasma and buffer were removed for the analysis of DPC-046 concentration by LC-MS-MS as described above.

A further series has as its system SK-OV-3. Briefly: IC50 in tumor cell lines (SK-OV-3). In kind it is cell-based. Particulars: Table 2; ovarian tumor cell line SK-OV-3. The method, then: as §2
Another series relates to OVCAR3. Briefly: IC50 in tumor cell lines (OVCAR3). In kind it is cell-based. Particulars: Table 2; ovarian tumor cell line OVCAR3. The method, then:
as §2

Series [2] relates to BxPC3 DPC-4(+/+) and BxPC3 DPC-4(−/−) cells. Briefly: Cytotoxicity (96-h MTT) in isogenic BxPC3 cell lines. The format is cell-based, Human. The conditions noted are these: BxPC3 cell lines. As to the method:
Cell lines and Culture Conditions. Human pancreatic cancer cell lines MiaPaCa-2 (Yunis et al., 1977), Panc-1 (Lieber et al., 1975), and BxPC3 (Tan et al., 1986) were purchased from the American Type Culture Collection (Manassas, Va.) and cultured in a humidified incubator at 37° C., 5% CO2, in RPMI 1640 medium (CellGro, Manassas, Va.) supplemented with 10% heat-inactivated bovine calf serum, 2 mM L-glutamine, 100 U/ml penicillin, and 100 µg/ml streptomycin (Invitrogen, Carlsbad, Calif.). MiaPaCa-2 (CRL-1420) is an adherent epithelial human pancreatic cancer cell line with a doubling time of approximately 40 h (Yunis et al., 1977). Panc-1 (CRL-1469) is an undifferentiated human pancreatic epithelial cell line with a doubling time of approximately 52 h (Lieber et al., 1975). The BxPC3 cell line DPC-4(−/−) and its isogenic restored wild-type DPC-4(+/+) cell line were developed and cultured as described previously (Wang et al., 2006). In brief, a DPC-4-expressing construct (pMSCVneoDPC-4) was created by amplifying full-length cDNA of DPC-4 using reverse transcriptase-PCR and subcloning into the multiple cloning site of a retroviral vector (pMSCVneo). The DPC-4-expressing construct was cotransfected into the BxPC3 DPC-4(−/−) cells using a packaging cell line, resulting in a cell line that constitutively expresses DPC-4. The expression of DPC-4 was confirmed by Western blotting (Wang et al., 2006).
as §2, §1

Series [3] relates to synthesis of DNA, RNA, or protein. Briefly: Measurement of macromolecular synthesis (radiolabeled precursors). The format is cell-based. As to the method:
Measurement of Macromolecular Synthesis. Radiolabeled precursors of DNA ([^3H]thymidine) and protein ([^14C]valine) were obtained from GE Healthcare (Piscataway, N.J.). The RNA precursor [^3H]uridine was obtained from MP Biomedical (Irvine, Calif.). In brief, cells were plated in 96-well plates and allowed to adhere before adding DPC-046 for 24 to 72 h. Radiolabeled precursors ([…] for thymidine and uridine, and 0.05 µCi/well for valine) were added and allowed to incorporate for 6 h at 37° C. Cells were harvested onto Unifilter-96 GF/B filterplates using a Packard Filtermate 96-well harvester and counted using a Packard Top Count NXT 96-well scintillation counter (PerkinElmer Life and Analytical Sciences, Boston, Mass.).

The next series concerns the target TrkB (Homo sapiens, UniProt Q16620). The series is described as follows: Follow-up kinase screening and IC50 (SignalChem), TrkB. In kind it is biochemical. More on the design: assay run by SignalChem Pharmaceuticals, Inc. (Richmond, BC, Canada).
Series [4] in a line: Storage stability by LC-MS. In kind it is physicochemical. As to the method: Stability Studies. LC-MS was used to evaluate the stability of DPC-046 kept at −20° C. or at 22° C., unprotected from light. After 2 years of storage, there was a measurable (8.6%) loss of parent compound when stored at −20° C. in the dark and a 43.6% loss at 22° C. in light.

Chain of TrkB (Q16620 32-822): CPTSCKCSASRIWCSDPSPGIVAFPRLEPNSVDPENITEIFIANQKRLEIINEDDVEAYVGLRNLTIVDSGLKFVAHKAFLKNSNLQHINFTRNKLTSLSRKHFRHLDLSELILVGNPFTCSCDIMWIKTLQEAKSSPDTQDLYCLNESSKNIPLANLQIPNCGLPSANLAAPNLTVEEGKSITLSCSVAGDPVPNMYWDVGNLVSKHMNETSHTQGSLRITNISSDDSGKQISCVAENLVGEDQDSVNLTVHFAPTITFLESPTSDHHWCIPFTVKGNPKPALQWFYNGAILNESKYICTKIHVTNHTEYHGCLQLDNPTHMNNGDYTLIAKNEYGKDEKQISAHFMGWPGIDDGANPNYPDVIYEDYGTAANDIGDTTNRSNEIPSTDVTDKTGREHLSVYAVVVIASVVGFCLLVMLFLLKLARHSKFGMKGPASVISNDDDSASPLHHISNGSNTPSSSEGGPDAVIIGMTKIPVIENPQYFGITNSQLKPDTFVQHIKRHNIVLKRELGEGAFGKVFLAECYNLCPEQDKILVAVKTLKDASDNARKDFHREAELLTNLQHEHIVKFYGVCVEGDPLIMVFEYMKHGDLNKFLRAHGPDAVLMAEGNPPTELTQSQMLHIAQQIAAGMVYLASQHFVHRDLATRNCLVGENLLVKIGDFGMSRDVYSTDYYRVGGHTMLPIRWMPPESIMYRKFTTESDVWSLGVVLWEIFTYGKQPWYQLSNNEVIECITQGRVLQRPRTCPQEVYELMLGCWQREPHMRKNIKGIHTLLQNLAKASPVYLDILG

Consider `COc1ccc(-c2cnc(-c3ccncc3-c3cccc(OC)c3)o2)cc1` [DPC046], for which the “effect on cell cycle phases (in words)” value with BxPC3 DPC-4(−/−) cells (listed as (D)PC-046) was “block in the S and G2/M-phases”; in the series on BxPC3 DPC-4(−/−) cells (listed as DPC-046) it was “reduction in the percentage of G0/G1-phase cells and a commensurate increase in G2/M-phase cells”. Also, the pIC50 in the series on MCF7 was 7.96; with SK-OV-3, 7.77; in the series with OVCAR3 it was 7.89; in [3] (DNA, RNA, protein, average, at 72 h, read-out: IC50 for inhibition of synthesis of each macromolecule), ~5.52. Further, the “bound to plasma proteins” value in [1] is 91%. Moreover, the “potency against BxPC3 cell lines (in words)” value in series [2] (listed as DPC-046) is given as “most potent; also recorded: greatest cytotoxicity”; in series [2] (listed as PC-046), “high potency”. The “selectivity of inhibition of DNA, RNA or protein synthesis (in words)” value in series [3] (24 to 72 h) was “no selective inhibition”. For the same compound, the “inhibition of TrkB” value was “more than 70%” against TrkB (25 μM DPC-046, follow-up screen) and 98% at TrkB (highest concentration tested (50 μM)). Further, the “loss of parent compound” value in series [4] (2 years of storage at 22° C. in light) was found to be 43.6%; in [4] (2 years of storage at −20° C. in the dark) it was 8.6%.
